Blank lines part the entries; values can stand above or below the compound they belong to. The source made the active and inactive calls.
Assays:
[1] = HepG2 cell cytotoxicity, dose response, cytotoxicity control for Shn3 inhibitor project, CellTiter-Glo, cherry-picked (AID 624134); assay type: functional, cell-based
[2] = Shn3 3'UTR reporter inhibitors, dose response, cell-based, Clone20 osteoblasts, firefly luciferase, cherry-picked (AID 624132); assay type: functional;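 also: firefly luciferase luminescence from reporter carrying the Shn3 3'UTR in osteoblasts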
[3] = cytotoxicity in HEK-293T cells, dose response, cytotoxicity control for TCR NF-kB inhibitor project, luminescence, T-cell screen hits (AID 489026); assay type: functional, cell-based;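 also: cells exposed to compound about 14 hours before the viability readout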
[4] = control 3'UTR Renilla luciferase suppression, dose response, counter-screen for Shn3 inhibitor project, cell-based, Clone20-Shn3RL, cherry-picked (AID 624133); assay type: functional
[5] = target: T1, Histone-lysine N-methyltransferase NSD2 (Homo sapiens, UniProt O96028); assay type: biochemical
T1 sequence (O96028 whole entry): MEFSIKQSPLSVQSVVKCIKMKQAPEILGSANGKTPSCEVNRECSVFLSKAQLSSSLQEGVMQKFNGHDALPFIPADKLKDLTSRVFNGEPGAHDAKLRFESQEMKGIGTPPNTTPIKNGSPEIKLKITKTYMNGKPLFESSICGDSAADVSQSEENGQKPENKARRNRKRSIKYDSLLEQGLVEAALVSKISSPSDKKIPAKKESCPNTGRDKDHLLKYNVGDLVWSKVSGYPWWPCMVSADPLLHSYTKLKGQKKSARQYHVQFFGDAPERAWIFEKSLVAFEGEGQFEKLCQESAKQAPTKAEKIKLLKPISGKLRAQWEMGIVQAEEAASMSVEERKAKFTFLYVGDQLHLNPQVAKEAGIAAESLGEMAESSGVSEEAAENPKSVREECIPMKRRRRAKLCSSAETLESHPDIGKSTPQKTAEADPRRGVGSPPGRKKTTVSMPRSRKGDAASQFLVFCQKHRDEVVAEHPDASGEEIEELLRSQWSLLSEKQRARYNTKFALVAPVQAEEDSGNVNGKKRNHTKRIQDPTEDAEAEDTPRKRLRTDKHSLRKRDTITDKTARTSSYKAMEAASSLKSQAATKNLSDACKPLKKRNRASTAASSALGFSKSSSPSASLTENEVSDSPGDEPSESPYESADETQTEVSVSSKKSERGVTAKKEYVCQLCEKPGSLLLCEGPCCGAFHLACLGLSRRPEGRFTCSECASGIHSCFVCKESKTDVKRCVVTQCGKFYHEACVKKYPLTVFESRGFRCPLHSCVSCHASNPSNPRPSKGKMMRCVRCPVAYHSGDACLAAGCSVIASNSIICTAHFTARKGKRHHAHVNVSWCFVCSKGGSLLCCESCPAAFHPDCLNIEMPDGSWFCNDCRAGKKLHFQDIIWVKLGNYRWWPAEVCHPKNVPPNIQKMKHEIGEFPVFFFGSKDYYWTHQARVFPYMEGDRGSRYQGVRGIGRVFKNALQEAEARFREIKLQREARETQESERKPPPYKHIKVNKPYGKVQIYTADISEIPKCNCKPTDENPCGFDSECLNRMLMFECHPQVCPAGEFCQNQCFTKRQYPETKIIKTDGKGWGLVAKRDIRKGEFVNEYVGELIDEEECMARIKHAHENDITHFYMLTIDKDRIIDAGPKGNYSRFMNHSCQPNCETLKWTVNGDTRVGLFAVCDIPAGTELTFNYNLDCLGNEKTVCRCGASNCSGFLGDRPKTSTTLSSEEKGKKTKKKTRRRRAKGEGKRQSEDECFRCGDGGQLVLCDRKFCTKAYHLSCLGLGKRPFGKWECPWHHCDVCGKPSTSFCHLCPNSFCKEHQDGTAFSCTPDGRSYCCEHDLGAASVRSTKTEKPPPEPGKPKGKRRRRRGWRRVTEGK

[6] = off-target signal loss in HeLa-CEM21 co-culture – HeLa F-luc CTL cells, cherry-picked, counter-screen for HIV-1 Env fusion inhibitor project, dose response (AID 652040); assay type: functional, cell-based;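 also: potency for signal decrease marking cytotoxic or nonspecific inhibition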
[7] = ZM109 Env clade C HIV-1 fusion inhibitors, dose response, HeLa effector, CEM target cells, luciferase, cherry-pick (AID 652058); assay type: functional, cell-based
[8] = inhibitors of HIV Env-driven cell fusion, dose response, cherry-pick (AID 652057); assay type: functional, cell-based
Genome polyprotein = Genome polyprotein (dengue virus type 2, UniProt P29990); assay: Dengue-2 NS5 methyltransferase inhibitors, primary screen, biochemical, confirmation dose response (AID 588689); assay type: functional
Sequence of Genome polyprotein (P29990 2492-3391 limits assumed): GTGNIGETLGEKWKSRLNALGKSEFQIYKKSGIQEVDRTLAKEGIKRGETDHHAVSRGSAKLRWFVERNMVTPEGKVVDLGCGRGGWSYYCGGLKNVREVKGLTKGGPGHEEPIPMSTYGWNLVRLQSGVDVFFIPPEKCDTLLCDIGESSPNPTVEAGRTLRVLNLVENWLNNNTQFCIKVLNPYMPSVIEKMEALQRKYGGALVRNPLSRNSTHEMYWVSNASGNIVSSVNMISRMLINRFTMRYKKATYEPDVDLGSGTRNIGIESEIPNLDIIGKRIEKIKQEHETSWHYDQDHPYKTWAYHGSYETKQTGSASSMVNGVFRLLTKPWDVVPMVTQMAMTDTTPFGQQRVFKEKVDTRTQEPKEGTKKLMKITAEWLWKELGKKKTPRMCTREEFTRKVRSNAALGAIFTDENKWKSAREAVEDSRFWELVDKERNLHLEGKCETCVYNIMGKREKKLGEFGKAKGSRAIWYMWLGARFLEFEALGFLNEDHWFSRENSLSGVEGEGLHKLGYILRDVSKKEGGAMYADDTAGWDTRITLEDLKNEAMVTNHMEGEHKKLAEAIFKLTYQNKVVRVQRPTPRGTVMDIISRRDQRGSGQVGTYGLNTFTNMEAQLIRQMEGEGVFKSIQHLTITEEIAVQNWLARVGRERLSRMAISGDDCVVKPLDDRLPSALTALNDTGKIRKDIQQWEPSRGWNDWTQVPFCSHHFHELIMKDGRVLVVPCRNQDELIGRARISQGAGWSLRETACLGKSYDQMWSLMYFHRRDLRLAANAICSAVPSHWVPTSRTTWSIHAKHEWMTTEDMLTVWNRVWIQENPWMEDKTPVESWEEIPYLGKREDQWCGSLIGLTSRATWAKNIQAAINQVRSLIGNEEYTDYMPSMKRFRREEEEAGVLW

[9] = target: FAD-linked sulfhydryl oxidase ALR (Homo sapiens, UniProt P55789); assay: inhibitors of human ALR sulfhydryl oxidase, dose response, biochemical, H2O2 detection, luminescence, cherry-pick (AID 493248)
Sequence of FAD-linked sulfhydryl oxidase ALR (P55789 whole entry): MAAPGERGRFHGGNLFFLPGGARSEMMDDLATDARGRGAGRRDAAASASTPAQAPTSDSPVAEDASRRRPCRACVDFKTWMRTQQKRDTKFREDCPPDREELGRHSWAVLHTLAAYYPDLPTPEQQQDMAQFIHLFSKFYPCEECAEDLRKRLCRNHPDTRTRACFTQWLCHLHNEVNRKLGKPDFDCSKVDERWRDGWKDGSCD

[10] = target: Induced myeloid leukemia cell differentiation protein Mcl-1 (Homo sapiens, UniProt Q07820); assay type: functional
Sequence of Induced myeloid leukemia cell differentiation protein Mcl-1 (Q07820 whole entry): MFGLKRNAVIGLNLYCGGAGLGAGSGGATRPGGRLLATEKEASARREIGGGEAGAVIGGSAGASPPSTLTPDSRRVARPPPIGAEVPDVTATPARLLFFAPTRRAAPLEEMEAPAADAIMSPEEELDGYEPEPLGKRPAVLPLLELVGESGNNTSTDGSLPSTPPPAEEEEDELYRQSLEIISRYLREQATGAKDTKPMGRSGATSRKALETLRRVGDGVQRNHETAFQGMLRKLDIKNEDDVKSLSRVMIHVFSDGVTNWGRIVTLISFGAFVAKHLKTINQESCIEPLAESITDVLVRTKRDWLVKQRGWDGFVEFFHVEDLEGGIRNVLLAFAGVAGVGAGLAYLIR

Cytochrome P450 2D6 = Cytochrome P450 2D6 (Homo sapiens, UniProt P10635);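 also: CYP2D6 member of a cytochrome P450 panel assay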
Sequence of Cytochrome P450 2D6 (P10635 whole entry): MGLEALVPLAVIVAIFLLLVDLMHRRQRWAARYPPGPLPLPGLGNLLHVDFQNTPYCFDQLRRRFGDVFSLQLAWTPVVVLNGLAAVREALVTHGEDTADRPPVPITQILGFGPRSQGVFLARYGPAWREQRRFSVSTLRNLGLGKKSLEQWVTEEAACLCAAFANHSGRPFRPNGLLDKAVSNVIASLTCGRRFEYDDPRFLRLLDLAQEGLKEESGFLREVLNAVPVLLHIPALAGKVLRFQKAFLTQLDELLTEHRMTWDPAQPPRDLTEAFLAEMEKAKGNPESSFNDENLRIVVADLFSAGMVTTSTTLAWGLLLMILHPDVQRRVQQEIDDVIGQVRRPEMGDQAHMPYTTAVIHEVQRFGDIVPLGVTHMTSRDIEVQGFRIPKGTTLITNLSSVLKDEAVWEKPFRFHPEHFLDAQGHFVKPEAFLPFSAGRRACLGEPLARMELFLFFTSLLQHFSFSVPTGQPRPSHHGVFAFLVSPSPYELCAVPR

[11] = MC4R antagonists, dose response, counter-screen for LGR2 antagonist project, cell-based, plate reader, cherry pick (AID 743444); assay type: functional;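 also: transfected HEK 293 cells stimulated with alpha-MSH peptide; potency of inhibitors of the alpha-MSH evoked signal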
[12] = LGR2 antagonists, dose response, cell-based, HEK293, CRE-luciferase reporter, cherry pick, set 2 (AID 743343); assay type: functional;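 also: transfected cells were stimulated with diluted bursicon conditioned medium after compound addition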
Cytochrome P450 2C9 = Cytochrome P450 2C9 (Homo sapiens, UniProt P11712)
Sequence of Cytochrome P450 2C9 (P11712 whole entry): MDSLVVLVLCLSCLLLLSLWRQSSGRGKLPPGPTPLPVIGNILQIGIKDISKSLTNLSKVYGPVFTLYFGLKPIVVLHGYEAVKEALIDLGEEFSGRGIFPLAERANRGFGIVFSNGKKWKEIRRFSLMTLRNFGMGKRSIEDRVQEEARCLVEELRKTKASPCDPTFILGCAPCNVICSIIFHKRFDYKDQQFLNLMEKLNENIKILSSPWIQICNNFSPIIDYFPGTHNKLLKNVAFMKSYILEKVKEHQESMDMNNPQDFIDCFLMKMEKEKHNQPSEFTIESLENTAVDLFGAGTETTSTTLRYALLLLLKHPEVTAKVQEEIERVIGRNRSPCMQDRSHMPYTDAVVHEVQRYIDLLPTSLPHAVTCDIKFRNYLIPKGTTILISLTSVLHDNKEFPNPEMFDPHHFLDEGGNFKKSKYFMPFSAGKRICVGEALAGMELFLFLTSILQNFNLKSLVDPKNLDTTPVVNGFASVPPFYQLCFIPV

Cytochrome P450 2C19 = Cytochrome P450 2C19 (Homo sapiens, UniProt P33261); assay: Cytochrome panel assay with activity outcomes. Panel member name: p450-cyp2c19 Compounds with AC50 equal or less than 10 uM are considered active; assay type: functional; conditions: read-out: AC50
Sequence of Cytochrome P450 2C19 (P33261 whole entry): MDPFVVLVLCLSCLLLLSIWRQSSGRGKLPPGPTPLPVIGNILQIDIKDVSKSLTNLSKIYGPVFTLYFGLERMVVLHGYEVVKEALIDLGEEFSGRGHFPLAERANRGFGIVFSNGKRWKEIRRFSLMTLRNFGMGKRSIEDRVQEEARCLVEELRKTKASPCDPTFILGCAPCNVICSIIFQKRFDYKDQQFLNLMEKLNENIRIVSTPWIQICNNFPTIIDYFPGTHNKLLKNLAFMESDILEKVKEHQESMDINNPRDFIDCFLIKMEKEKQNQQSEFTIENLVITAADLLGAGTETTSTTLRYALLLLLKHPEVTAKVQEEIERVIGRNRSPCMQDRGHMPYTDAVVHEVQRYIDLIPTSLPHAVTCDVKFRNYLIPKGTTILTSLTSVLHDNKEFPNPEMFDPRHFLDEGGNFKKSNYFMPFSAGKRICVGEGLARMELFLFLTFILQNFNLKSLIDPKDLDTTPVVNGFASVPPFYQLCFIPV

Cytochrome P450 3A4 = Cytochrome P450 3A4 (Homo sapiens, UniProt P08684);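 also: CYP3A4 tested as one member of a cytochrome P450 panel screen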
Sequence of Cytochrome P450 3A4 (P08684 whole entry, the tested form may be a part): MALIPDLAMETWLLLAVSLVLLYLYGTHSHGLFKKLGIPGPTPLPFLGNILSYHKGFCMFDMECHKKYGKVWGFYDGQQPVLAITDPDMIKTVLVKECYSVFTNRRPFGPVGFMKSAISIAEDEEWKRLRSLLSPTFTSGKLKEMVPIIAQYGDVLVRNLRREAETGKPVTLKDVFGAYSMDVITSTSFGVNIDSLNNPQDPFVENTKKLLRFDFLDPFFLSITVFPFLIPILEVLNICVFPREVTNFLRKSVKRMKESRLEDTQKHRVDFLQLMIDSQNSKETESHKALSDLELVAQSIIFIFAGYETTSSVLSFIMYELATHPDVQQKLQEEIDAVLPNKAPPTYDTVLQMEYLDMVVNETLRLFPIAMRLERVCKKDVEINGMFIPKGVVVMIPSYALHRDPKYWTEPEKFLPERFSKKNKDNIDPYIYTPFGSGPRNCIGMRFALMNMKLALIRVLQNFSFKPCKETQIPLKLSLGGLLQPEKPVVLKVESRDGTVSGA

[13] = inhibitors of clade B AD8 Env fusion, dose response, cell-based, cherry-pick (AID 652062); assay type: functional;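 also: luciferase signal from cell-cell fusion driven by HIV-1 clade B AD8 Env; potency is for inhibitors of fusion seen as a drop in luminescence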
[14] = target: Luciferin 4-monooxygenase (Photinus pyralis, UniProt P08659); assay: firefly luciferase enzyme inhibitors, dose response, biochemical, luminescence (AID 1891)
Sequence of Luciferin 4-monooxygenase (P08659 whole entry): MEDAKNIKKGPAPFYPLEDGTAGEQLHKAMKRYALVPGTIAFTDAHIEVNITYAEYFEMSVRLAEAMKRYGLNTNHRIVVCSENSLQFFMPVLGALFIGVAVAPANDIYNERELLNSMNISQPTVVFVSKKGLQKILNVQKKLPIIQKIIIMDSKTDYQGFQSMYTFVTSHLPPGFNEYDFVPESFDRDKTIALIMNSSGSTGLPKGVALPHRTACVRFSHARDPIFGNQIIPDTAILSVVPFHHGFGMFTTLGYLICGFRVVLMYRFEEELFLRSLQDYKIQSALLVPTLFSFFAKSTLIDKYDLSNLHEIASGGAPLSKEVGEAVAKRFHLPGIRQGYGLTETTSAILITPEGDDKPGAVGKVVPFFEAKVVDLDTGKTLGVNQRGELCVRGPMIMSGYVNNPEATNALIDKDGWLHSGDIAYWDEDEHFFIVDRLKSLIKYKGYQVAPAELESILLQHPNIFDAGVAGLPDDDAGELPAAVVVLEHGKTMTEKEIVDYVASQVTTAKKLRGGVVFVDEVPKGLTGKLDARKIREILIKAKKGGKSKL

[15] = Luminescence Cell-Based Dose Confirmation HTS to Identify Inhibitors of Platelet Dense Granule Release. [Related pubchem assays: 1663 (Primary HTS), 1678 (Summary of Project)]; assay type: functional
INS1 = assay: beta cell apoptosis inhibitors, cytokine rescue, dose response, luminescence, retest (AID 449756); assay type: functional, cell-based; conditions: Rattus norvegicus;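 also: cell death triggered by IL-1 beta plus TNF-alpha plus IFN-gamma mixture; protective hits raise ATP signal compared with cytokine alone wells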
[16] = target: T2, Heat shock factor protein 1 (Mus musculus, UniProt P38532); assay: HSF1 potentiators in luciferase reporter cells, confirmation, cell-based, NIH3T3, luminescence, dose retest (AID 435004); assay type: functional;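 also: stress induced by proteasome inhibitor MG132 added 30 min after compound; luciferase reporter driven by HSF1 response element in NIH3T3 cells; actives raise luminescence as potentiators of the MG132 stress response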
T2 sequence (P38532 whole entry): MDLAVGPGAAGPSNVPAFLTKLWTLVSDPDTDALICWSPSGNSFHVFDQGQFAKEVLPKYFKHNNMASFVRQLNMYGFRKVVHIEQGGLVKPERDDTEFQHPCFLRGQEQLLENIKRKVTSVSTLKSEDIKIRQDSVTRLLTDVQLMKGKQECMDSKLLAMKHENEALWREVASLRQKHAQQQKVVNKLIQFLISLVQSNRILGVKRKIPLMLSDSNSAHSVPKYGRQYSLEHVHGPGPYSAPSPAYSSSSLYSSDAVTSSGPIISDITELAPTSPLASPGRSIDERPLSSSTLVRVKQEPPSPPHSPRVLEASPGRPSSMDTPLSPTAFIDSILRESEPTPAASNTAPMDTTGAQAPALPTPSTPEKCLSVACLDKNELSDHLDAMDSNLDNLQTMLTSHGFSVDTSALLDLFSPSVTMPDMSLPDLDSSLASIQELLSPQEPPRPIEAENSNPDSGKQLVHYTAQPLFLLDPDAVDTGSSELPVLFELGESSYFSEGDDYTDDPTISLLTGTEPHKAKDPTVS

Cytochrome P450 1A2 = target: T3, Cytochrome P450 1A2 (Homo sapiens, UniProt P05177);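 also: PubChem cytochrome P450 panel assay, CYP1A2 panel member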
T3 sequence (P05177 whole entry): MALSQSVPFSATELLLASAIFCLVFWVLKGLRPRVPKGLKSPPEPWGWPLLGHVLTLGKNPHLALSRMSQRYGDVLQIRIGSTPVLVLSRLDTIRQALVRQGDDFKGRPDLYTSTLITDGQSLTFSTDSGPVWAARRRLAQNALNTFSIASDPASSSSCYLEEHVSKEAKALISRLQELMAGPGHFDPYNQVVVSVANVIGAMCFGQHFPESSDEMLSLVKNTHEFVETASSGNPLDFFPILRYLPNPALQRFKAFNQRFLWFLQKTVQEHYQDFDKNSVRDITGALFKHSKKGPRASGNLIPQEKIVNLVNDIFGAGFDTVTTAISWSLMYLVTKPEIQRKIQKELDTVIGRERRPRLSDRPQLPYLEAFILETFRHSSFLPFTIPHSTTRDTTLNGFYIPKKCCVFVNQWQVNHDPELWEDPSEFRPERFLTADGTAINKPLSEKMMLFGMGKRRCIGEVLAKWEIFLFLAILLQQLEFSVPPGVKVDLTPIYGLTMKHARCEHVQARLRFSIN

H9c2 = assay: cells; assay type: functional, cell-based; conditions: Rattus norvegicus, H9c2, Myocardium;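 also: confirmatory concentration-response retest of ultra-high-throughput screening hits for modulation of myocardial damage; cell death induced by hydrogen peroxide oxidative stress; compound pretreatment for 60 min then peroxide exposure for 2 h; potency is for protecting the cells against peroxide damage rather than for killing them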

- AC50 [5]: > 20 µM (inactive)
Structure (SMILES): CCOC(=O)NCCc1c(C)nc2c(c(C)nn2C(C)(C)C)c1C

- IC50 (Genome polyprotein): 50 µM (active)
Structure (SMILES): CCn1c(SC)nc(=O)c(C(c2ccc(OC)c(O)c2)c2c(O)n(CC)c(SC)nc2=O)c1O

- AC50 [9]: 17.2 µM (active)
- IC50 [10]: 1.14 µM (active)
- AC50 (Cytochrome P450 2D6): 28.2 µM (inconclusive)
Structure (SMILES): COc1ccc(N2CCC(CNC(=O)Nc3ccc(OC)cc3OC)C2)cc1 (stereo unspecified)

- IC50 [10]: 4.36 µM (active)
Structure (SMILES): Cc1ccc(-c2ccc(/C=C3/NC(=O)NC3=O)o2)cc1[N+](=O)[O-]

- AC50 (Cytochrome P450 2C9): inconclusive
- AC50 (Cytochrome P450 2C19): 39.8 µM (inconclusive)
- AC50 (Cytochrome P450 3A4): 14.1 µM (inconclusive)
Structure (SMILES): O=C(Nc1nc[nH]n1)c1ccc([N+](=O)[O-])cc1[N+](=O)[O-]

- IC50 [10]: 6.18 µM (not active)
Structure (SMILES): COc1ccc(NC(=O)Cc2c(SC)c3ccccc3n2Cc2ccccc2)cc1

- EC50 [16]: > 260 µM (inactive)
- AC50 (Cytochrome P450 2C9): inconclusive
- AC50 (Cytochrome P450 3A4): 35.5 µM (inconclusive)
Structure (SMILES): O=C(CCCn1c(=S)[nH]c2ccc(Br)cc2c1=O)NCC1CCCO1 (stereo unspecified)

- IC50 [10]: 8.77 µM (not active)
Structure (SMILES): CC(C(=O)NC1CCCC1)N(Cc1ccco1)C(=O)c1snc(C(=O)NC2CCCC2)c1N (stereo unspecified)

- IC50 (Genome polyprotein): 36.7 µM (active)
Structure (SMILES): O=C(O)CCCN1C(=O)/C(=C\c2ccccc2OCc2ccccc2)SC1=S

- AC50 (Cytochrome P450 1A2): 28.2 µM (inconclusive)
- AC50 (Cytochrome P450 2C9): inconclusive
Structure (SMILES): COc1ccc(Cl)cc1NC(=O)C12CCC(C)(C(=O)O1)C2(C)C (stereo unspecified)

- IC50 [10]: 2.82 µM (not active)
Structure (SMILES): CN(C)c1ccc(C(CNC(=O)c2ccccc2Br)c2c[nH]c3ccccc23)cc1 (stereo unspecified)

- AC50 [5]: > 20 µM (inactive)
Structure (SMILES): COC(=O)CCCCC1=CCC2C(=O)C=C(O)C2C1 (stereo unspecified)

- AC50 (Cytochrome P450 2C9): inconclusive
- AC50 (Cytochrome P450 2D6): 14.1 µM (inconclusive)
- AC50 (Cytochrome P450 2C19): 10 µM (inconclusive)
Structure (SMILES): C/C(CC(=O)NCCCN1CCOCC1)=N\NC(=O)COc1ccc(Cl)cc1

- AC50 (Cytochrome P450 2C9): inconclusive
- AC50 (Cytochrome P450 2D6): 22.4 µM (inconclusive)
- AC50 (Cytochrome P450 3A4): 0.891 µM (inconclusive)
Structure (SMILES): COc1ccccc1OCC(=O)N/N=C1/SCC(=O)N1Cc1ccccc1

Continued, compound first:

Structure (SMILES): O=C(Nc1cccc(C(F)(F)F)c1)c1sc(Cl)nc1C(F)(F)F
- AC50 [1]: > 70 µM (inactive)
- AC50 [2]: 9.06 µM (active)
- IC50 [3]: > 80 µM (inactive)
- AC50 [4]: 15.8 µM (active)

Structure (SMILES): O=C1c2cccnc2C(Nc2ccc(S(=O)(=O)N3CCCCCC3)cc2)N1Cc1ccccc1 (stereo unspecified)
- AC50 [6]: 32.2 µM (active)
- AC50 [7]: 30.5 µM (active)
- AC50 [8]: 27.2 µM (active)

Structure (SMILES): COc1ccc(C(=O)Nc2ccc3[nH]c(-c4cccc(OC)c4)cc(=O)c3c2)cc1
- IC50 [3]: > 80 µM (inactive)

Structure (SMILES): Cc1ccc(NC(=O)CSc2nc(-c3ccco3)cc(C(F)(F)F)n2)cc1C
- IC50 [3]: > 80 µM (inactive)

Structure (SMILES): Cc1ccc(-c2nc(-c3ccncc3)no2)c(Cl)c1
- AC50 [11]: 12.5 µM (active)
- AC50 [12]: 10.3 µM (active)

Structure (SMILES): O=C(O)c1[nH]c2ccccc2c1C(c1cccc(O)c1)c1c(C(=O)O)[nH]c2ccccc12
- IC50 (Genome polyprotein): 23.2 µM (active)

Structure (SMILES): CCS(=O)(=O)N1Cc2ccccc2CC1C(=O)NC(C)C12CC3CC(CC(C3)C1)C2 (stereo unspecified)
- AC50 [6]: 4.99 µM (active)
- AC50 [13]: 3.56 µM (active)
- AC50 [7]: 3.91 µM (active)
- AC50 [8]: 3.24 µM (active)

Structure (SMILES): COc1ccccc1C(=O)NN1C(=O)C2C3C=CC(O3)C2C1=O (stereo unspecified)
- EC50 [14]: > 112 µM (not active)
- EC50 [15]: > 112 µM (not active)
- AC50 (Cytochrome P450 2C9): inconclusive
- AC50 (Cytochrome P450 3A4): 17.8 µM (inconclusive)

Structure (SMILES): N#Cc1ccc(C(c2nnnn2CCc2ccccc2)N2CCCCCC2)cc1 (stereo unspecified)
- AC50 [6]: 20.2 µM (active)
- AC50 [13]: 10.2 µM (active)
- AC50 [7]: 12.1 µM (active)
- AC50 [8]: 4.92 µM (active)

Structure (SMILES): Cc1ccc(O)c(CNc2cccc3cccnc23)c1
- AC50 (INS1): 13.2 µM (active)
- AC50 [5]: > 20 µM (inactive)

Structure (SMILES): Cc1ccc2cc(C#N)c(N3CCN(C(=O)c4cccs4)CC3)nc2c1
- IC50 (H9c2): > 79 µM (inactive)

Structure (SMILES): C[C@H]1Cn2cnc(C(=O)N3CCN(c4ccccc4)CC3)c2C(=O)N1
- AC50 [6]: 7.64 µM (active)
- AC50 [13]: 13.4 µM (active)
- AC50 [7]: 6.04 µM (active)
- AC50 [8]: 3.57 µM (active)

Reference: ChEMBL document CHEMBL1201862, “PubChem BioAssay data set” (2004)
